Values quoted from earlier work in US8197795B2, “Method for monitoring early treatment response” (Receptomon, LLC, priority 2004, dated 2012).

Columns and labels:
[1] = test system: xenograft models, including colon cancer, non-small cell lung cancer (NSCLC), and prostate cancer; conditions: Ranson et al.
NSCLC = NSCLC patients treated with gefitinib; Lynch et al. 2004
solid, malignant tumors = conditions: patients with solid, Ranson et al. 2002

COc1cc2ncnc(Nc3ccc(F)c(Cl)c3)c2cc1OCCCN1CCOCC1 [gefitinib]
activity in xenograft models [1]: active
patients with a rapid and often dramatic clinical response (NSCLC): about 10%
activity in patients (solid, malignant tumors): active
